In the NIST ThermoML archive (doi:10.1016/j.fluid.2012.01.014):

Assays:
[1] = Ring tensiometer
[2] = cn = amount concentration of the nth substance listed, in mol/dm3; details: Ring tensiometer

O [water]
[1]
Details | surface tension liquid-gas [mN/m]
293 K | 72.8
303 K | 71.2
313 K | 69.6

CCCCCCCCCCCCCC[N+](C)(C)C.[Br-] [tetradecyltrimethylammonium bromide] + O
surface tension liquid-gas [mN/m], [2]
Details | 293 K | 313 K
c1 = 1e-07 | 72.4 | 69.59
c1 = 5.01e-07 | 72.3 | 69.54
c1 = 1e-06 | 72.2 | 69.48
c1 = 5.01e-06 | 71.7 | 69.03
c1 = 1e-05 | 71.6 | 68.49
c1 = 5.01e-05 | 70.8 | 67.49
c1 = 0.0001 | 69.9 | 66.58
c1 = 0.0002 | 66.7 | 63.61
c1 = 0.000501 | 59.1 | 58.43
c1 = 0.000631 | 56.1 | 55.41
c1 = 0.000708 | 54.6 | 53.85
c1 = 0.000794 | 53.7 | 52.61
c1 = 0.000891 | 52.7 | 51.54
c1 = 0.001 | 51.9 | 50.21
c1 = 0.002 | 43.7 | 42.65
c1 = 0.00316 | 36.7 | 36.05
c1 = 0.00398 | 36.3 | 35.38
c1 = 0.00501 | 36.3 | 35.38
c1 = 0.00708 | 36.3 | 35.38
c1 = 0.01 | 36.3 | 35.38

O [water] + CCCCCCCCCCCCOS(=O)(=O)[O-].[Na+]
[2], c2 = 0
Details | surface tension liquid-gas [mN/m]
293 K | 72.8
303 K | 71.2
313 K | 69.6

O [water] + CCCCCCCCCCCCCCCCS(=O)(=O)[O-].[Na+]
[2], c2 = 0
Details | surface tension liquid-gas [mN/m]
293 K | 72.8
303 K | 71.2
313 K | 69.6

O [water] + CCCCCCCCCCCC[N+](C)(C)CC.[Br-]
[2], c2 = 0
Details | surface tension liquid-gas [mN/m]
293 K | 72.8
303 K | 71.2
313 K | 69.6

CCCCCCCCCCCCCCCCS(=O)(=O)[O-].[Na+] [sodium hexadecylsulfonate] + O
surface tension liquid-gas [mN/m], [2]
Details | 293 K | 303 K | 313 K
c1 = 1e-08 | 72.8 | 71.2 | 69.6
c1 = 1e-07 | 72.8 | 71.19 | 69.6
c1 = 1e-06 | 72.7 | 71.15 | 69.55
c1 = 3.98e-06 | 72.6 | 70.99 | 69.42
c1 = 5.01e-06 | 72.5 | 70.89 | 69.31
c1 = 6.03e-06 | 72.4 | 70.77 | 69.21
c1 = 7.94e-06 | 72.3 | 70.69 | 69.09
c1 = 1e-05 | 72.2 | 70.54 | 68.99
c1 = 2e-05 | 71.6 | 69.98 | 68.41
c1 = 6.03e-05 | 69 | 68.49 | 67.04
c1 = 0.0001 | 66.2 | 65.54 | 64.15
c1 = 0.0002 | 59.15 | 58.94 | 58.84
c1 = 0.000603 | 43.23 | 43.17 | 43.12
c1 = 0.000741 | 40.28 | 40.07 | 39.97
c1 = 0.000891 | – | 38.59 | 38.55
